Assay results: US20160199326A1, “USE OF TRIFLUOROACETIC ACID AS KERATOLYTIC AGENT TO TREAT HYPERKERATOTIC SKIN LESIONS” (POLICHEM S.A., priority 2013, published 2016)

Key:
[1] = known; cited from earlier work
[2] = system: stratum corneum of hairless rats; test: Exfoliating activity in vivo after topical application on the back of hairless rats, histological evaluation; design: species or system rat; conditions: ten hairless rats, 10% CaTFA gel topical two times a day for ten days
Experimental: The formulations used had the following composition: Medicated formulation (D) CaTFA 10.00 g, Xanthan gum 2.00 g, Water q.s. to 100.00 g. Vehicle (V): Xanthan gum 2.00 g, Water q.s. to 100.00 g.
The experiments were carried out on 4 weeks old hairless male rats (HsdHanTM:RNU—Foxnl rnu, Harlan Italy srl, Correzzana, Italy). The back of ten rats was divided in two parts (section area: 2.5×3.0 cm) for topical application of the test formulations. A volume of 200 μl of the medicated formulation or the vehicle was applied two times a day for ten days. Fifteen hours after the last administration, the animals were sacrificed by cervical dislocation and the portion of skin submitted to the treatment was excised, carefully rinsed to remove the remaining formulation and submitted to histological evaluation. A sample of untreated skin of each animal was used as control (C). The histological evaluation was done as follows: the skin samples were fixed in 10% buffered formalin solution, dehydrated and embedded in JB-4 plastic resin. Coronal sections were cut by a microtome (Reichert-Jung) and mounted onto gelatin coated slides. Sections were stained with methylene blue/toluidine blue for microscopic examination to verify the absence of stratum corneum and the condition of the other parts of the skin. The specimens were assessed under Leitz Diaplan microscope.

tumor growth = conditions: animal experimental models; cited from earlier work
solid tumor cells = conditions: in vitro; cited from earlier work
angiogenesis = conditions: cited from earlier work

Row | Compound | toxicity [1] | effective as keratolytic agent, share of treated animals [2] | tumor growth (tumor growth) | cytotoxic activity (solid tumor cells) | antiangiogenetic activity (angiogenesis)
1 | O=C([O-])C(F)(F)F.[Na+] [NaTFA, Sodium Trifluoroacetate] | devoid of significant toxicity |  |  |  | 
2 | O=C([O-])C(F)(F)F.O=C([O-])C(F)(F)F.[Ca+2] [Calcium trifluoroacetate] |  | 70% | inhibit tumor growth | in vitro cytotoxic activity on solid tumor cells | relevant antiangiogenetic activity
